Converted amounts (≈) assume the structure as drawn. Counter-ions that a name gives are not always drawn.
How the values were obtained:
IRAK4 = IRAK4 (Homo sapiens (Human), UniProt Q9NWZ3); experiment: IRAK4 MSD biochemical assay (2-hour 1 mM ATP); conditions: 0.1 nM IRAK4, 1 mM ATP, 2 hour at room temperature
[1] = Kinetic solubility assay (CLND), pH 6.8; assay type: physicochemical; conditions: aqueous buffer, kinetic from dmso stock; potassium phosphate buffer pH 6.8, 2% DMSO, 24 hours at ambient temperature
MDR1 = MDR1 (Homo sapiens (Human), UniProt P08183); experiment: in vitro; conditions: MDCK-MDR1
MDR1, sequence (P08183 whole entry): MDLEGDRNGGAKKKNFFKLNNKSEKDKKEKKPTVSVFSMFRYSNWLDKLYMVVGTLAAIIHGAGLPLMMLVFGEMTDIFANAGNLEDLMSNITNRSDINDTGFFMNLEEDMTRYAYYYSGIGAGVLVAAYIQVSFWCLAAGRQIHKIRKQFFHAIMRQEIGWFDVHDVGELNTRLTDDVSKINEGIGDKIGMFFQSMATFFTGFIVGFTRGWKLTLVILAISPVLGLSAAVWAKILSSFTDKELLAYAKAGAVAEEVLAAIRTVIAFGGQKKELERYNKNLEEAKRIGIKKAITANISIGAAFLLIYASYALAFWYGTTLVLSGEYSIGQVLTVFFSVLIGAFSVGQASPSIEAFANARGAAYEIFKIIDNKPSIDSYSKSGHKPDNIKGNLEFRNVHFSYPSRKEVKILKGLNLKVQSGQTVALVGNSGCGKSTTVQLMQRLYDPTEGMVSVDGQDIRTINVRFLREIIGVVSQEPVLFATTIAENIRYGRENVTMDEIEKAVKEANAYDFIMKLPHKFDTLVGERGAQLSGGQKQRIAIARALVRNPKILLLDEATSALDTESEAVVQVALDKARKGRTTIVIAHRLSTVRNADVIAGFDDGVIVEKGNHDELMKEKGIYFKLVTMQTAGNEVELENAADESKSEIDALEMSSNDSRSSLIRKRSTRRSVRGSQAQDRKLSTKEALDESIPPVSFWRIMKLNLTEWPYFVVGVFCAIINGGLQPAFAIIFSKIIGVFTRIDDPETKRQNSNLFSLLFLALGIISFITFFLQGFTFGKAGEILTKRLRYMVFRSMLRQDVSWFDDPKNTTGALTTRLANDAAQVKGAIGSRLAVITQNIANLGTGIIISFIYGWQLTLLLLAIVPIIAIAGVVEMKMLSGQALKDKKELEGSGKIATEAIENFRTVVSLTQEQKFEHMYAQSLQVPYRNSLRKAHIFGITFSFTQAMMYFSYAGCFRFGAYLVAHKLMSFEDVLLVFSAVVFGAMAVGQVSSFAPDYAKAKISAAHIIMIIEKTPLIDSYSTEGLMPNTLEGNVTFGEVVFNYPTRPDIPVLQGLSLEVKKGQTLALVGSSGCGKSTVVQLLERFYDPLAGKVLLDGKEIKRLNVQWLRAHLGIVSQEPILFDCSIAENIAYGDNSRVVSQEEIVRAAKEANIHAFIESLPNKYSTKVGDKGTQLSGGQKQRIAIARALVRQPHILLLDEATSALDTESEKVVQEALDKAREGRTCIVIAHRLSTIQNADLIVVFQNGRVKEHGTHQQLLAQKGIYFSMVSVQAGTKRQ

IRAK4, sequence (Q9NWZ3 whole entry): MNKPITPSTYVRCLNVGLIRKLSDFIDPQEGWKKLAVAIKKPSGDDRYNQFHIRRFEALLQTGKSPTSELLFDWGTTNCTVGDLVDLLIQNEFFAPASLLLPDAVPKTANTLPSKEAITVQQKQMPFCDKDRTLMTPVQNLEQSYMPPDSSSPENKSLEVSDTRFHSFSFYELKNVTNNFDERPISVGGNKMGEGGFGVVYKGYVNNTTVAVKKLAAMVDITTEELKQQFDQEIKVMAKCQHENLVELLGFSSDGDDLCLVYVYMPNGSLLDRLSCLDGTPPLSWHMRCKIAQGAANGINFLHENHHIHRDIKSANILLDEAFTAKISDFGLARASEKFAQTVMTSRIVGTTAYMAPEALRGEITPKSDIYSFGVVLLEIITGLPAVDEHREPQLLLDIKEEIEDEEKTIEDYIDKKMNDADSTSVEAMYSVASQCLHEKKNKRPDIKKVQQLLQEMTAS

| IC50 (IRAK4) [nM] | solubility kinetic at 24 h [1] [µg/mL] | efflux ratio at 120 min, 1 μM (MDR1) | Structure (SMILES) |
| --- | --- | --- | --- |
| 0.2 | 62.6 (≈ 134 µM) | 18.2 | C[C@@H](CF)Oc1cc2nc(C34COC(C)(C3)C4)cn2cc1C(=O)Nc1cccn(C2CC2)c1=O [Example 28, (S)—N-(1-cyclopropyl-2-oxo-1,2-dihydropyridin-3-yl)-7-((1-fluoropropan-2-yl)oxy)-2-(1-methyl-2-oxabicyclo[2.1.1]hexan-4-yl)imidazo[1,2-a]pyridine-6-carboxamide] |
| 1.2 | 9.9 (≈ 22.6 µM) | 3.9 | CC(C)Oc1cc2nc([C@H]3COCCO3)cn2cc1C(=O)Nc1cccn(C2CC2)c1=O (single isomer, unassigned) [Example 70] |
| 0.7 | 23.1 (≈ 48.1 µM) | 3.9 | CC(C)Oc1cc2nc([C@@]34CC[C@@](C)(C3)OC4)cn2cc1C(=O)Nc1cccn([C@H]2C[C@@H]2F)c1=O (single isomer, unassigned) [Example 117] |
| 1 | 39.2 (≈ 90.2 µM) | 11.1 | CC(C)Oc1cc2nc(C34COC(C3)C4)cn2cc1C(=O)Nc1cccn(C2CC2)c1=O [Example 34, 2-(2-oxabicyclo[2.1.1]hexan-4-yl)-N-(1-cyclopropyl-2-oxo-1,2-dihydropyridin-3-yl)-7-isopropoxyimidazo[1,2-a]pyridine-6-carboxamide] |
| 0.6 | 62.8 (≈ 130 µM) | 4.9 | CC(C)Oc1c(C(=O)Nc2cccn([C@H]3C[C@H]3F)c2=O)cn2cc(C34COC(C)(C3)C4)nc2c1F (single isomer, unassigned) [Example 93] |
| 0.2 | 19.2 (≈ 41.2 µM) | 2.3 | O=C(Nc1cccn([C@H]2C[C@H]2F)c1=O)c1cn2cc(C34COC(C3)C4)nc2nc1OC1CCC1 (single isomer, unassigned) [Example 167] |
| 0.6 | 55.6 (≈ 116 µM) | 5.3 | CC(C)Oc1cc2nc([C@@]34CC[C@@](C)(C3)OC4)cn2cc1C(=O)Nc1cccn([C@@H]2C[C@H]2F)c1=O [Example 116, N-(1-((1R,2R)-2-fluorocyclopropyl)-2-oxo-1,2-dihydropyridin-3-yl)-7-isopropoxy-2-((1S,4R)-1-methyl-2-oxabicyclo[2.2.1]heptan-4-yl)imidazo[1,2-a]pyridine-6-carboxamide] |
| 0.5 |  | 7 | CC(C)Oc1nc2nc(C[C@H]3CCOC3)cn2cc1C(=O)Nc1cccn(C2CC2)c1=O (single isomer, unassigned) [Example 110] |
| 1.7 |  | 1.5 | CC(C)Oc1nc2nc([C@]34CC[C@](C)(C3)OC4)cn2cc1C(=O)Nc1cccn([C@@H]2CC23CC3)c1=O (single isomer, unassigned) [Example 153] |
| 66.5 |  | 4.4 | CC(C)Oc1c(C(=O)Nc2cccn([C@@H]3C[C@@H]3F)c2=O)cn2cc([C@]34CC[C@](C)(C3)OC4)nc2c1F (single isomer, unassigned) [Example 126] |
| 0.8 |  | 5.1 | CC(C)Oc1c(C(=O)Nc2cccn([C@@H]3C[C@@H]3F)c2=O)cn2cc(C34COC(C)(C3)C4)nc2c1F (racemic) [Example 91, (rac)-Cis-8-fluoro-N-(1-(2-fluorocyclopropyl)-2-oxo-1,2-dihydropyridin-3-yl)-7-isopropoxy-2-(1-methyl-2-oxabicyclo[2.1.1]hexan-4-yl)imidazo[1,2-a]pyridine-6-carboxamide] |
| 41 |  | 2.6 | O=C(Nc1cccn([C@@H]2C[C@@H]2F)c1=O)c1cn2cc(C34COC(C3)C4)nc2nc1OC1CCC1 (single isomer, unassigned) [Example 166] |
| 1.3 |  | 10.3 | CCOc1nc2nc(C34COC(C)(C3)C4)cn2cc1C(=O)Nc1cccn(C2CC2)c1=O [Example 43, N-(1-cyclopropyl-2-oxo-1,2-dihydropyridin-3-yl)-7-ethoxy-2-(1-methyl-2-oxabicyclo[2.1.1]hexan-4-yl)imidazo[1,2-a]pyrimidine-6-carboxamide] |
| 6.3 |  | 3.8 | CO[C@H]1C[C@@H]1n1cccc(NC(=O)c2cn3cc(C45COC(C)(C4)C5)nc3nc2OC(C)C)c1=O (single isomer, unassigned) [Example 138] |
| 0.3 |  | 3 | CC(C)Oc1nc2nc([C@H]3CCCOC3)cn2cc1C(=O)Nc1cccn(C2CC2)c1=O (single isomer, unassigned) [Example 107] |
| 23 |  | 7.9 | CC[C@@H](C)Oc1nc2nc(C34COC(C)(C3)C4)cn2cc1C(=O)Nc1cccn([C@@H]2C[C@@H]2F)c1=O (single isomer, unassigned) [Example 57] |
| 9 |  | 9.4 | CC[C@H](C)Oc1nc2nc(C34COC(C)(C3)C4)cn2cc1C(=O)Nc1cccn([C@@H]2C[C@@H]2F)c1=O (single isomer, unassigned) [Example 59] |
| 1.2 |  | 2.6 | CC(C)Oc1nc2nc([C@@]34CC[C@@](C)(C3)OC4)cn2cc1C(=O)Nc1cccn([C@@H]2C[C@H]2C)c1=O (single isomer, unassigned) [Example 148] |
| 1.1 |  | 1.2 | CC(C)Oc1nc2nc([C@@]34CC[C@@](C)(C3)OC4)cn2cc1C(=O)Nc1cccn([C@@H]2CC23CC3)c1=O (single isomer, unassigned) [Example 151] |
| 14 |  | 1 | CC(C)Oc1c(C(=O)Nc2ccnn(C3CC3)c2=O)cn2cc(C34COC(C)(C3)C4)nc2c1F [Example 73, N-(2-cyclopropyl-3-oxo-2,3-dihydropyridazin-4-yl)-8-fluoro-7-isopropoxy-2-(1-methyl-2-oxabicyclo[2.1.1]hexan-4-yl)imidazo[1,2-a]pyridine-6-carboxamide] |
| 2.7 |  | 1 | CC(C)Oc1nc2nc([C@@]34CC[C@@](C)(C3)OC4)cn2cc1C(=O)Nc1cccn([C@H]2CC23CC3)c1=O (single isomer, unassigned) [Example 150] |
| 21.4 |  | 4.3 | CC(C)Oc1cc2nc(C34COC(C)(C3)C4)cn2cc1C(=O)Nc1cccn([C@@H]2C[C@@H]2C)c1=O [Example 133, 7-isopropoxy-2-(1-methyl-2-oxabicyclo[2.1.1]hexan-4-yl)-N-(1-((1R,2S)-2-methylcyclopropyl)-2-oxo-1,2-dihydropyridin-3-yl)imidazo[1,2-a]pyridine-6-carboxamide] |
| 1.4 |  | 4.8 | CO[C@@H]1C[C@H]1n1cccc(NC(=O)c2cn3cc(C45COC(C)(C4)C5)nc3nc2OC(C)C)c1=O (single isomer, unassigned) [Example 137] |
| 0.3 |  | 10.4 | CC(C)Oc1cc2nc([C@@]34CC[C@@](C)(C3)OC4)cn2cc1C(=O)Nc1cccn([C@H]2C[C@H]2F)c1=O (single isomer, unassigned) [Example 169] |
| 24.9 |  | 5.3 | CC(C)Oc1cc2nc([C@]34CC[C@](C)(C3)OC4)cn2cc1C(=O)Nc1cccn([C@@H]2C[C@@H]2C)c1=O [Example 181, 7-isopropoxy-2-((1R,4S)-1-methyl-2-oxabicyclo[2.2.1]heptan-4-yl)-N-(1-((1R,2S)-2-methylcyclopropyl)-2-oxo-1,2-dihydropyridin-3-yl)imidazo[1,2-a]pyridine-6-carboxamide trifluoroacetate] |

| Structure (SMILES) | IC50 (IRAK4) [nM] | solubility kinetic at 24 h [1] [µg/mL] | efflux ratio at 120 min, 1 μM (MDR1) |
| --- | --- | --- | --- |
| COCC12CC(c3cn4cc(C(=O)Nc5cccn([C@H]6C[C@H]6F)c5=O)c(OC5CCC5)nc4n3)(CO1)C2 [Example 128, 7-cyclobutoxy-N-(1-((1S,2R)-2-fluorocyclopropyl)-2-oxo-1,2-dihydropyridin-3-yl)-2-(1-(methoxymethyl)-2-oxabicyclo[2.1.1]hexan-4-yl)imidazo[1,2-a]pyrimidine-6-carboxamide] | 0.3 | 72.5 (≈ 142 µM) | 20.8 |
| C[C@]12CC[C@](c3cn4cc(C(=O)Nc5cccn(C6CC6)c5=O)c(OC5CCC5)cc4n3)(CO1)C2 (single isomer, unassigned) [Example 26] | 0.7 | 65.3 (≈ 138 µM) | 4.1 |
| O=C(Nc1cccn([C@@H]2C[C@@H]2F)c1=O)c1cn2cc(C34COC(C3)C4)nc2nc1OC1CCC1 (racemic) [Example 86, (rac)-Cis-2-(2-oxabicyclo[2.1.1]hexan-4-yl)-7-cyclobutoxy-N-(1-(2-fluorocyclopropyl)-2-oxo-1,2-dihydropyridin-3-yl)imidazo[1,2-a]pyrimidine-6-carboxamide] | 0.8 | 44.9 (≈ 96.5 µM) | 0.9 |
| CCC12CC(c3cn4cc(C(=O)Nc5cccn(C6CC6)c5=O)c(OC(C)C)cc4n3)(CO1)C2 [Example 2, N-(1-cyclopropyl-2-oxo-1,2-dihydropyridin-3-yl)-2-(1-ethyl-2-oxabicyclo[2.1.1]hexan-4-yl)-7-isopropoxyimidazo[1,2-a]pyridine-6-carboxamide] | 0.4 | 65.7 (≈ 142 µM) | 3.3 |
| CC[C@@H](C)Oc1nc2nc(C34CCC(CF)(C3)OC4)cn2cc1C(=O)Nc1cccn(C2CC2)c1=O (stereo partly drawn) [Example 55, 7-((R)-sec-butoxy)-N-(1-cyclopropyl-2-oxo-1,2-dihydropyridin-3-yl)-2-(1-(fluoromethyl)-2-oxabicyclo[2.2.1]heptan-4-yl)imidazo[1,2-a]pyrimidine-6-carboxamide] | 1.1 |  | 4.7 |
| CC[C@@H](C)Oc1nc2nc([C@]34CC[C@](C)(C3)OC4)cn2cc1C(=O)Nc1cccn(C2CC2)c1=O [Example 51, 7-((R)-sec-butoxy)-N-(1-cyclopropyl-2-oxo-1,2-dihydropyridin-3-yl)-2-((1R,4S)-1-methyl-2-oxabicyclo[2.2.1]heptan-4-yl)imidazo[1,2-a]pyrimidine-6-carboxamide] | 1.8 |  | 3.1 |

From patent US20240116922A1, “IMIDAZO[1,2-A]PYRIDINE DERIVATIVES AS IRAK4 INHIBITORS AND THEIR USE IN THE TREATMENT OF DISEASE” (BIOGEN MA INC., priority 2020, published 2024)
